The values that follow come from patent publication US9242951B2, “Covalent inhibition of bacterial quorum sensing” (priority 2009, dated 2016).

Where two headings read alike, the source gives them in different places.

Assay [1] concerns LasI reporter coupled to the luxCDABE luminescence system. Description: P. aeruginosa PAO-JP2 QS agonist/antagonist assay (luminescence reporter). The assay is classed as cell-based. Particulars: for IC50: Pseudomonas aeruginosa, read-out: IC50, 3-oxo-C12-HSL antagonist activity in PAO-JP2. The protocol: P. aeruginosa PAO-JP2 QS Agonist/Antagonist Assay.
PAO-JP2, a lasI/rhlI-deleted strain harboring plasmid pKD201 containing a LasI reporter coupled to the luxCDABE luminescence system (see above), was incubated overnight in LB medium containing 300 micro-g/ml of trimethoprim. A 96-well black microtiter plate (Greiner) was prepared as described for the PA01 inhibition assay. The relative luminescence was then plotted against the added inhibitor concentration; IC50 values were calculated using Grafit 6.0 (Erithacus Software). For antagonist experiments, a final concentration of 50 nM 3-oxo-C12-HSL was used.

The target of assay [2] is T1, LasR (Pseudomonas aeruginosa, UniProt P25084).
T1 construct: expressed in transfected cells; host or cells: E. coli DH5-alpha (pJN105L + pSC11 PlasI-lacZ)
Particulars: read-out: IC50 reported by Geske et al.; E. coli-based LasR antagonist assay, literature value; cited from earlier work.

Assay [3] deals with wild type P. aeruginosa PAO1 strain. The experiment in a line: Biofilm formation of wild type PAO1 in microtiter plates. The assay is classed as cell-based. Particulars: 50 micro-M, 24 h, versus DMSO. The procedure: (§1) To assess whether the reactive probes inhibit QS-regulated activities, such as biofilm formation and pyocyanin production, the wild type P. aeruginosa PAO1 strain was incubated in the presence of itc-12 and 4-Br-PHL (both at 50 micro-M), or DMSO, as a control, in microtiter plates that allow analysis of 24 h biofilm formation and in vials allowing measurement of 36 h pyocyanin production. […] However, even a partial reduction in biofilm formation may be sufficient to render the bacteria vulnerable to host responses, as not only is total biofilm mass affected upon disruption of QS, but also is its architecture, its degree of porosity and its extent of flexibility and robustness.

The next assay has as its target T2, LasR-LBD (Pseudomonas aeruginosa, UniProt P25084).
T2 construct: His6; made in house; host or cells: E. coli BL21 (pETM-11)
The experiment in a line: Expression of LasR-LBD in presence of probe; covalent labeling by LC-MS and soluble protein by SDS-PAGE. The assay is classed as binding, P. aeruginosa. Particulars: for soluble LasR-LBD obtained on expression in presence of compound: SDS-PAGE of purified protein; for covalent modification of purified LasR-LBD (LC-MS): 10-100 micro-M compound in bacterial growth culture. The procedure:
All MS analyses were performed on a LCQ Fleet mass spectrometer (Thermo Scientific) with an ESI source. Spectra were collected in positive ion mode and analyzed by Xcalibur and Promass software (Thermo Scientific). For LC/MS analyses a Surveyor Plus HPLC System (Thermo Scientific) was used, equipped with a Luna C18, 5 μm (150×4.6 mm) column at a flow rate of 0.5 mL/min, using a mobile phase linear gradient of 0.1% aqueous formic acid (solvent A) and CH3CN containing 0.1% formic acid (solvent B).
The expression of full length LasR was previously found to yield largely insoluble protein in the presence or absence of the native ligand, 3-oxo-C12-HSL (Bottomley, M. J., Muraglia, E., Bazzo, R. & Carfi, A. Molecular insights into quorum sensing in the human pathogen Pseudomonas aeruginosa from the structure of the virulence regulator LasR bound to its autoinducer. J Biol Chem 282, 13592-600 (2007)). Therefore, expression was performed using a strain transformed with a pETM-11 vector encoding for a shortened, His6-tagged LasR construct, LasR-LBD (ligand-binding domain), spanning residues Met-1 to Lys-173. The plasmid was transferred into E. coli BL21 and cells were incubated in 1 mL rich LB medium for 1 hour. The cells were then grown on LB agar plates containing kanamycin (50 micro-g/mL). For expression, a single colony was selected and transferred into 5 mL of rich LB medium containing kanamycin and grown overnight. Proteins were expressed in the presence of either native 3-oxo-C12-HSL or different inhibitors and purified by Ni^2+ affinity chromatography as previously described (Bottomley, M. J., Muraglia, E., Bazzo, R. & Carfi, A. Molecular insights into quorum sensing in the human pathogen Pseudomonas aeruginosa from the structure of the virulence regulator LasR bound to its autoinducer. J Biol Chem 282, 13592-600 (2007), yielding ˜70 mg of purified protein per liter of LB medium using large scale expression conditions, and ˜0.5-1 mg of purified protein from 50 mL of LB medium using small scale expression conditions. The purification process was monitored by SDS-PAGE electrophoresis and the molecular mass of the purified proteins was confirmed by mass spectrometry.
1 mL of the overnight grown cell culture was used to inoculate 1 liter of rich LB medium containing kanamycin (50 micro-g/mL) and 10-100 micro-M of 3-oxo-C12-HSL or inhibitors 7a-c and 11a-g. Cells were grown to an optical density (OD600 nm) of 0.4, after which expression was induced at 21° C. by addition of 0.2 mM isopropyl 1-thio-beta-D-galactopyranoside (IPTG) and an additional amount of ligand/inhibitor was added to the media. After reaching an OD600 nm of 1.4 (approx. 6-8 hours), cells were centrifuged at 6000 rpm, washed and resuspended in lysis buffer containing 5 mM imidazole, 300 mM NaCl, 50 mM Tris-HCl, pH 8. Cells were ultrasonicated for 2 minutes at 70% amplitude for two cycles. The lysate was centrifuged at 12,000 rpm for 30 minutes, and the supernatants were purified by Ni^2+ affinity chromatography.
Small scale expression was performed in 50 mL volume following the previous procedure. Cells were harvested by chemical lysis, adding 1 mL of lysis buffer (5 mM imidazole, 300 mM NaCl, 0.2% (v/v) Triton X-100, 0.75 μg/mL DNase-I, 0.05 mM MgCl2, 0.01 mM CaCl2, 50 mM Tris-HCl, pH 8, and 0.01% (v/v) protein inhibitor cocktail), and incubated for 60 minutes at 37° C. Cell debris was removed by centrifugation at 4,000 rpm for 15 minutes. […]

The target of assay [4] is T1, LasR. Description: E. coli DH5-alpha LasR agonist/antagonist assay (PlasI-lacZ, beta-galactosidase). The assay is classed as cell-based, P. aeruginosa. The protocol: E. coli DH5-Alpha LasR Agonist/Antagonist Assay.
E. coli DH5-alpha harboring the LasR expression vector. pJN105L, and a plasmid-borne PlasI-lacZ fusion (pSC11) (Lee, J. H., Lequette, Y. & Greenberg, E. P. Activity of purified QscR, a Pseudomonas aeruginosa orphan quorum-sensing transcription factor. Mol Microbiol 59, 602-9 (2006)) was used to quantify quorum sensing inhibition by measuring expression levels of beta-galactosidase. Bacteria were incubated overnight in LB medium containing 100 micro-g/mL of ampicillin and 15 micro-g/mL of gentamicin. The culture was diluted at a 1:10 ratio by volume with fresh medium and further incubated until an OD600 nm of 0.3 was reached. A 96 well microtiter plate (Greiner) was prepared with the desired concentrations of inhibitors and bacteria were added to reach a final absorbance density (OD600 nm) of 0.3. Expression was induced at the edition of L-(+)-arabinose (4 mg/mL) and the plates were incubated at 37° C. for a period of 4 hours (OD600 nm of 0.45-0.5). The cultures were then assayed for beta-galactosidase activity according to the Miller assay method^46: […] were transferred to clear 96-well microtiter plates and the OD600 was recorded. […] was then added to a polypropylene-based 96-well microtiter plate containing […] of 0.1% SDS (w/v). Wells were thoroughly rinsed by pipetation, after which the chloroform was allowed to settle. […] upper layer was transferred to a fresh 96-well microtiter plate and […]-beta-D-galactopyranoside (ONPG, 4 mg/mL in phosphate buffer of pH 7) were added. The plates were incubated 35 minutes at 28° C. The reaction was terminated with the addition of […] sodium carbonate solution, and absorption at two wavelengths (550 nm, 429 nm) was recorded. Miller units were calculated using standard methods (Miller, J. H. Experiments in Molecular Genetics. 352-355 (Cold Spring Harbor Laboratories, 1972)). For antagonist experiments, a final concentration of 50 nM 3-oxo-C12-HSL was used.

The subject of assay [5] is wild type P. aeruginosa PAO1 strain. The experiment in a line: Pyocyanin production of wild type PAO1. The assay is classed as cell-based. Particulars: 50 micro-M, 36 h, versus DMSO. The protocol: as §1
Assay [6] relates to LasI reporter coupled to the luxCDABE luminescence system. Description: P. aeruginosa wild-type strain (PA01) QS inhibition assay (luminescence reporter). The assay is classed as cell-based. Particulars: for IC50: Pseudomonas aeruginosa, PAO1, read-out: IC50, inhibition of luminescence in wild type PAO1 reporter strain; for inhibition of lasI expression in PAO1-luxCDABE (virulence): FIG. 9. The procedure: P. aeruginosa Wild-Type Strain (PA01) QS Inhibition Assay.
The P. aeruginosa PA01 wild type strain harboring plasmid pKD201 containing a LasI reporter coupled to the luxCDABE luminescence system (Duan, K. & Surette, M. G. Environmental regulation of Pseudomonas aeruginosa PAO1 Las and Rhl quorum-sensing systems. J Bacteriol 189, 4827-36 (2007)), was incubated overnight in LB medium containing 300 micro-g/ml of trimethoprim. A 96-well black microtiter plate (Greiner) was prepared with the desired concentrations of inhibitors (up to 1 mM, above which growth inhibition was observed), and bacteria were added to reach a final absorbance density (OD600 nm) of 0.015. The plate was then incubated for a period of 12 hours at 37° C. During this time, luminescence measurements were performed at 10 minute intervals. The relative luminescence was then plotted against the added inhibitor concentration; IC50 values were calculated using Grafit 6.0 (Erithacus Software).

For another assay, the target named is T3, LasR-LBD Cys79Ala mutant (Pseudomonas aeruginosa, UniProt P25084, C79A).
T3 construct: His6; made in house; host or cells: bacteria (E. coli BL21 as for wild-type LasR-LBD, inferred)
Description: Expression of LasR-LBD Cys79Ala mutant in presence of probe, covalent labeling. The assay is classed as binding, P. aeruginosa.

Assay [7] has as its target T4, LasR-LBD Cys79Ser mutation (Pseudomonas aeruginosa, UniProt P25084, C79S).
T4 construct: His6; made in house; host or cells: bacteria (E. coli BL21 as for wild-type LasR-LBD, inferred)
Description: Expression of LasR-LBD Cys79Ser mutant in presence of probe, covalent labeling. The assay is classed as binding, P. aeruginosa.

T2 sequence (P25084 1-173): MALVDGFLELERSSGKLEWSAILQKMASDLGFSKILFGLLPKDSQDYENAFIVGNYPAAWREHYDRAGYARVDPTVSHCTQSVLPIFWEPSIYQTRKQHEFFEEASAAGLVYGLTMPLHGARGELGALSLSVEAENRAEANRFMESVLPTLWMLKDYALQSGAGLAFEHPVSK
T1 sequence (P25084 whole entry): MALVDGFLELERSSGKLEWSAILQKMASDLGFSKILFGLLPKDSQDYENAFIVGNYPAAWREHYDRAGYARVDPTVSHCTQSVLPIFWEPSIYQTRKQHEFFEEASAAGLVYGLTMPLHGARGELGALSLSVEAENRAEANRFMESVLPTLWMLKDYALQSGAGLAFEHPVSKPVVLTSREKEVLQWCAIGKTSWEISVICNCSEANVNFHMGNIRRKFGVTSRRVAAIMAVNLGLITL
T4 sequence (P25084 1-173 C79S): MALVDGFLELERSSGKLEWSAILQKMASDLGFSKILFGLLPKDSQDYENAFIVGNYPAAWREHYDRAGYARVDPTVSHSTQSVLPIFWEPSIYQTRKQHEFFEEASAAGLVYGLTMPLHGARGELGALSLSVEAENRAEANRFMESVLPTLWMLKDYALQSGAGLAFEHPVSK
T3 sequence (P25084 1-173 C79A): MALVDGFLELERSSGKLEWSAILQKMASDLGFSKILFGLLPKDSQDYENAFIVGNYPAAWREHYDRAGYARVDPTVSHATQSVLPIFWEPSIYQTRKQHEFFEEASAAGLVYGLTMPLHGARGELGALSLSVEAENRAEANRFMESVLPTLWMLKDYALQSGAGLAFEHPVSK

In the case of `O=C(Cc1ccc(Br)cc1)NC1CCOC1=O` (stereo not drawn) [4-Br-PHL, 2-(4-bromophenyl)-N-(2-oxo-tetrahydrofuran-3-yl)-acetamide, reference compound], the IC50 (in general, the point on the concentration scale where inhibition reaches its midpoint) in [1] was around 200 µM; at LasR [2], 3.9 µM; on LasR [4] it was 4.8 ± 0.5 µM; in assay [6] it was around 250 µM. Moreover, the “inhibition of biofilm formation” value in assay [3] is “significantly inhibited”. The “soluble LasR-LBD obtained on expression in presence of compound” value on LasR-LBD is on record as “no soluble LasR was observed”. Further, the “inhibition of pyocyanin production” value in [5] is listed as “significantly inhibited”.
Take `[N-]=[N+]=NCCCCCCCCCC(=O)CC(=O)NC1CCOC1=O` (stereo not drawn) [azido-C12, 12-azido-3-oxo-N-(2-oxotetrahydrofuran-3-yl)dodecanamide]: the “inhibitory activity compared with itc-12” value in [1] (data not shown) is “significantly lower than that of itc-12”. Also, on LasR-LBD, the “covalent modification of purified LasR-LBD (LC-MS)” value (shortened to “covalent modification … (LC-MS)”) was “no covalently labeled product”.
Molecule `O=C(CCCCCCCCNC(=O)CBr)CC(=O)N[C@H]1CCOC1=O` [hal-11-Br] yielded an IC50 at LasR [4] of 26.8 ± 1.3 µM.
Regarding `O=C(CCCCCCCCNC(=O)CCl)CC(=O)N[C@H]1CCOC1=O` [hal-11-Cl], on LasR [4], the IC50 is 3.1 ± 0.1 µM.
In the case of `O=C(CCCCCCCCCNC(=O)CCl)CC(=O)N[C@H]1CCOC1=O` [hal-12-Cl], the IC50 is 70 ± 27 µM in assay [1] and 1.1 ± 0.1 µM at LasR [4] (antagonism of LasR activation by 50 nM 3-oxo-C12-HSL, E. coli reporter, read-out: IC50, E. coli-based LasR antagonist studies).
For `O=C(CCCCCCCCN=C=S)CC(=O)NC1CCOC1=O` (stereo not drawn) [itc-11, 11-isothiocyanato-3-oxo-N-(2-oxotetrahydrofuran-3-yl)undecanamide], on LasR-LBD, the “covalent modification … (LC-MS)” value is reported as “covalently modified”. For the same molecule, the IC50 at LasR [4] was 39.1 ± 9.4 µM; in [6], around 300 µM.
On to `O=C(CCCCCCCCCN=C=S)CC(=O)NC1CCOC1=O` (stereo not drawn) [itc-12, 12-isothiocyanato-3-oxo-N-(2-oxotetrahydrofuran-3-yl)dodecanamide], for which the IC50 in assay [1] was 134 ± 6 µM. Moreover, the “agonism in PAO-JP2-based reporter” value in [1] (markedly reduced levels compared to natural autoinducer) is listed as “partial agonism patterns”. The “soluble protein, LasR-LBD Cys79Ala mutant” value at LasR-LBD Cys79Ala mutant is listed as “Soluble protein was, however, obtained”. The “covalent modification of LasR-LBD Cys79Ala mutant” value at LasR-LBD Cys79Ala mutant (data not shown) is recorded as “no covalent modification was detected”. In addition, the “inhibition of biofilm formation” value in [3] is “significantly inhibited”. Moreover, on LasR-LBD, the “covalent modification … (LC-MS)” value is on record as “covalently modified” and the “soluble LasR-LBD obtained on expression in presence of compound” value is given as “larger amounts of soluble LasR-LBD”. Besides, at LasR [4], the IC50 was 29.8 ± 0.5 µM. The “inhibition of pyocyanin production” value in [5] is given as “significantly inhibited”. In addition, in [7], the “covalent modification of LasR-LBD Cys79Ser” value is recorded as “no covalent modification being observed” and the “soluble protein, LasR-LBD Cys79Ser” value is given as “yielded expression of soluble protein”. In addition, in [6], the “inhibition of lasI expression in PAO1-luxCDABE (virulence)” value is recorded as “dose-dependent manner” and the IC50 came to 113 ± 19 µM.
For `O=C(CCCCCCCCCCN=C=S)CC(=O)NC1CCOC1=O` (stereo not drawn) [itc-13, 13-isothiocyanato-3-oxo-N-(2-oxotetrahydrofuran-3-yl)tridecanamide], the values for the IC50 (in assay [1]; on LasR [4]; in assay [6]) were 30 ± 7 µM, 19.2 ± 3.9 µM and 45.2 ± 0.7 µM, respectively.
As for `O=C(CCCCCCCCCS)CC(=O)NC1CCOC1=O` (stereo not drawn) [thiol-11, 12-Mercapto-3-Oxo-N-(2-Oxotetrahydrofuran-3-yl)Dodecanamide], the “inhibition of lasI expression in PAO1-luxCDABE (virulence)” value in [6] is on record as “dose-dependent manner”.
